# Source: ChEMBL document CHEMBL1142981, “Identification and synthesis of a novel selective partial PPARdelta agonist with full efficacy on lipid metabolism in vitro and in vivo” (J Med Chem, 2007)
# Legend:
# [1] = test system: Mus musculus; test: Increase in HDL level in human ApoB100/CETP transgenic mouse at 20 mg/kg, po after 6 weeks relative to control; type: functional
# [2] = test system: Mus musculus; test: Increase in HDL level in human ApoB100/CETP transgenic mouse at 10 mg/kg, po after 6 weeks relative to control; type: functional
structure (smiles),measurement,setting,value
O=C(O)COc1ccc(SCC=C(c2ccc(Br)cc2)c2ccc(Br)cc2)cc1Cl,Activity,[1],33%
same,Activity,[2],14%
